Data on 24 compounds can be found in ChEMBL document CHEMBL1146668, “1,2-Benzothiazine 1,1-dioxide alpha-ketoamide analogues as potent calpain I inhibitors” (Bioorg Med Chem Lett, 2004).

A word on the IC50: it is the concentration needed to halve the response being measured.

Bounds are passed on as bounds.

The target of test [1] is T1, Calpain-1 catalytic subunit (Homo sapiens, UniProt P07384).
T1 sequence (P07384 whole entry): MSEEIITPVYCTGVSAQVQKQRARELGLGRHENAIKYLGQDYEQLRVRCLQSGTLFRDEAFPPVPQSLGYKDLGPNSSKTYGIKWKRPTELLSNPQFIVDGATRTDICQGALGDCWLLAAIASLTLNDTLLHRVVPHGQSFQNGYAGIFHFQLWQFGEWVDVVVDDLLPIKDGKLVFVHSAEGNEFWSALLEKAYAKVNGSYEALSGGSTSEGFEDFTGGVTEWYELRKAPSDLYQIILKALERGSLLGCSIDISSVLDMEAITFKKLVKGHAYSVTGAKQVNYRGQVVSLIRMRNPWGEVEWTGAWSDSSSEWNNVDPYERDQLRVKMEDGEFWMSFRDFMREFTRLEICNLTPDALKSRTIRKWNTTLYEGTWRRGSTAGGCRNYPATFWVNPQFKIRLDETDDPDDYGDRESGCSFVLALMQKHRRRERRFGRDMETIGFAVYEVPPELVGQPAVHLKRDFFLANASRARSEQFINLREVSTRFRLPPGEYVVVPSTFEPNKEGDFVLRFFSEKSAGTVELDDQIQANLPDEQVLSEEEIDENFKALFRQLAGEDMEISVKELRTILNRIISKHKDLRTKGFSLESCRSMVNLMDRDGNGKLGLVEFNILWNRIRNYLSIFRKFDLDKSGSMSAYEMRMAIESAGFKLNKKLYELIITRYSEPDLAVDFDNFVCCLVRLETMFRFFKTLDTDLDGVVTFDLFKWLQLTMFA
In words: In vitro inhibitory activity against recombinant human calpain 1.

The target of test [2] is T1, Calpain-1 catalytic subunit. The experiment in a line: In vitro inhibitory activity against human calpain 1 in Molt-4 cells (intact human T-cell leukemia cell line). Type of test: cell-based.
Test [3] concerns the target T2, Cathepsin B (Homo sapiens, UniProt P07858). The experiment in a line: Inhibitory activity against cathepsin B.
The next test deals with Chymotrypsinogen B (Homo sapiens, UniProt P17538). In words: Inhibitory activity against chymotrypsinogen; Range 1-10 uM.
Chymotrypsinogen B, sequence (P17538 34-164 limits assumed, other chains not shown): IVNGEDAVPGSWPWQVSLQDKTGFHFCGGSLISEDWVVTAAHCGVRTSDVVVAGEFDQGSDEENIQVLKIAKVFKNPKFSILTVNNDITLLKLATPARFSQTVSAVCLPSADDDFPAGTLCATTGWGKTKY
Chymotrypsinogen B, sequence (P17538 167-263 limits assumed, other chains not shown): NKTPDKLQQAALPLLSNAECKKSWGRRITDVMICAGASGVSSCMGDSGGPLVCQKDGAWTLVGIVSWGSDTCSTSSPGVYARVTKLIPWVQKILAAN
Test [4] deals with T1, Calpain-1 catalytic subunit. In words: In vitro inhibitory activity against human calpain I; Not determined.
For test [5], the target named is T2, Cathepsin B. In words: Inhibitory activity against cathepsin B; In active.

Take `CCN1C(C(=O)N[C@@H](Cc2ccccc2)C(=O)C(=O)NCc2ccncc2)Cc2cc3c(cc2S1(=O)=O)OCCO3` (some centres undefined): the IC50 in test [1] stood at 240 nM.
For the compound `CCNC(=O)C(=O)[C@H](Cc1ccccc1)NC(=O)C1Cc2cc(Cl)ccc2S(=O)(=O)N1CC` (some centres undefined), the IC50 in test [1] was found to be 1000 nM.
As to `CCN1C(C(=O)N[C@@H](Cc2ccccc2)C(=O)C(=O)NC(C)C)Cc2cc3c(cc2S1(=O)=O)OCCO3` (some centres undefined), the IC50 in test [1] amounted to 205 nM.
In test [2], `CCN1C(C(=O)N[C@@H](Cc2ccccc2)C(=O)C(=O)NCCCNS(=O)(=O)c2ccccc2)Cc2cc3c(cc2S1(=O)=O)OCCO3` (some centres undefined) registered an IC50 of 2700 nM.
For the compound `CCN1C(C(=O)N[C@@H](Cc2ccccc2)C(=O)C(=O)NCCc2ccccc2)Cc2cc3c(cc2S1(=O)=O)OCCO3` (some centres undefined), the IC50 in test [1] worked out at 63 nM.
For the compound `CCN1C(C(=O)N[C@@H](Cc2ccccc2)C(=O)C(=O)NCCNS(=O)(=O)c2ccc(-c3ccccn3)s2)Cc2cc3c(cc2S1(=O)=O)OCCO3` (some centres undefined), the values for the IC50 result (against Cathepsin B [3]; in test [2]; on Chymotrypsinogen B) were “Not Active”, 1300 nM and > 10000 nM, respectively.
For `CCN1C(C(=O)N[C@@H](Cc2ccccc2)C(=O)C(=O)NCCCn2ccnc2)Cc2cc3c(cc2S1(=O)=O)OCCO3` (some centres undefined), the IC50 in test [1] was found to be 5000 nM.
In test [2], `CCN1C(C(=O)N[C@@H](Cc2ccccc2)C(=O)C(=O)NCCCNS(=O)(=O)c2ccc([N+](=O)[O-])cc2)Cc2cc3c(cc2S1(=O)=O)OCCO3` (some centres undefined) had an IC50 of 3600 nM.
As for `CCN1C(C(=O)N[C@@H](Cc2ccccc2)C(=O)C(=O)NCCOC)Cc2cc3c(cc2S1(=O)=O)OCCO3` (some centres undefined), the IC50 in test [1] came out at 200 nM.
The compound `CCN1C(C(=O)N[C@@H](Cc2ccccc2)C(=O)C(=O)NCCNS(=O)(=O)c2ccc([N+](=O)[O-])cc2)Cc2cc3c(cc2S1(=O)=O)OCCO3` (some centres undefined) came in with an IC50 in test [2] of 4200 nM.
Regarding `CCN1C(C(=O)N[C@@H](Cc2ccccc2)C(=O)C(=O)NCCNS(=O)(=O)c2ccc(F)cc2)Cc2cc3c(cc2S1(=O)=O)OCCO3` (some centres undefined), the IC50 in test [2] is 2000 nM.
For the compound `CCN1C(C(=O)N[C@H](C=O)Cc2ccccc2)Cc2cc(Cl)ccc2S1(=O)=O` (some centres undefined), in test [4], half-maximal inhibition (IC50) required 5 nM.
`O=C[C@H](Cc1ccccc1)NC(=O)C1Cc2ccccc2S(=O)(=O)N1` (some centres undefined): the IC50 in test [1] is 7 nM.
For `CCN1C(C(=O)N[C@@H](Cc2ccccc2)C(=O)C(=O)NCc2ccccn2)Cc2cc3c(cc2S1(=O)=O)OCCO3` (some centres undefined), the IC50 in test [1] came out at 170 nM.
In the case of `CCN1C(C(=O)N[C@@H](Cc2ccccc2)C(=O)C(=O)NCCCN2CCCC2=O)Cc2cc3c(cc2S1(=O)=O)OCCO3` (some centres undefined), in test [1], the IC50 is 500 nM.
On the same count and under the same terms, for `CCN1C(C(=O)N[C@@H](Cc2ccccc2)C(=O)C(=O)NCCCN2CCOCC2)Cc2cc3c(cc2S1(=O)=O)OCCO3` (some centres undefined) the value was 195 nM; for `C=CCNC(=O)C(=O)[C@H](Cc1ccccc1)NC(=O)C1Cc2cc3c(cc2S(=O)(=O)N1CC)OCCO3` (some centres undefined), 200 nM; for `CCCCCNC(=O)C(=O)[C@H](Cc1ccccc1)NC(=O)C1Cc2cc3c(cc2S(=O)(=O)N1CC)OCCO3` (some centres undefined), 150 nM.
Regarding `CCN1C(C(=O)N[C@@H](Cc2ccccc2)C(=O)C(=O)NCCCNS(=O)(=O)c2ccc(F)cc2)Cc2cc3c(cc2S1(=O)=O)OCCO3` (some centres undefined), the IC50 in test [2] amounted to 2400 nM.
On to `CCN1C(C(=O)N[C@@H](Cc2ccccc2)C(=O)C(=O)NCCNS(=O)(=O)c2ccccc2)Cc2cc3c(cc2S1(=O)=O)OCCO3` (some centres undefined), for which the IC50 result against Cathepsin B [5] is “Not Active”; in test [2] it was 5000 nM; against Chymotrypsinogen B it was > 10000 nM.
Regarding `CCN1C(C(=O)N[C@@H](Cc2ccccc2)C(=O)C(=O)OC)Cc2cc3c(cc2S1(=O)=O)OCCO3` (some centres undefined), the IC50 in test [1] came out at 1000 nM.
Consider `CCCCNC(=O)C(=O)[C@H](CC(C)C)NC(=O)C1Cc2cc3c(cc2S(=O)(=O)N1CC)OCCO3` (single isomer, unassigned; form 1), for which, in test [1], the IC50 is 500 nM.
On the same count and under the same terms, the same measure for `CCCCNC(=O)C(=O)[C@H](CC(C)C)NC(=O)C1Cc2cc3c(cc2S(=O)(=O)N1CC)OCCO3` (single isomer, unassigned; form 2): 1000 nM.
Consider `CCCCNC(=O)C(=O)[C@H](Cc1ccccc1)NC(=O)C1Cc2cc3c(cc2S(=O)(=O)N1CC)OCCO3` (stereo in doubt), for which the IC50 entry is “Not Active” against Cathepsin B [5] and > 10000 nM against Chymotrypsinogen B.
